Experimental data published in patent US20110288125A1, “NOVEL USE OF PIPERINE” (Industry-Academic Cooperation Foundation, Yonsei University, priority 2009, published 2011).
Entries after “also recorded” stand apart in the source; their conditions may differ.

Legend:
[1] = system: mouse adipocytes (3T3-L1); assay: Adipocyte differentiation inhibition, Oil Red O staining; type: cell-based; conditions: 14 days
Procedure: The effect of piperine on adipocyte differentiation and growth was investigated using mouse adipocytes (3T3-L1). Preadipocytes 3T3L1 were placed on a 12-well plate and cultured to confluency in a 5% CO2 incubator at 37° C. using DMEM containing 1% penicillin-streptomycin, 1% non-essential amino acids and 10% fetal bovine serum (FBS). The cultured 3T3-L1 cells were differentiated into adipocytes by culturing for 2 days in a medium containing 0.5 mM methylisobutylxanthine/1 μM dexamethasone/1 μg/mL insulin (DMI). The cells were differentiated into mature adipocytes by further culturing for 2 days in DMEM containing 1 μg/mL insulin. Subsequently, they were further cultured for 10 days while changing DMEM every other day to obtain fully differentiated adipocytes. Starting from the day when DMI was added to the 3T3-L1 cells, piperine was treated at concentrations of 0.1, 1, 10, 50 and 100 μM every other day. Piperine was purchased from Sigma and used after being dissolved in DMSO. For negative control, only DMSO was used. After the culturing for a total of 14 days, when the cells were fully differentiated, the medium was removed and the fats contained in the differentiated adipocytes were stained. […] To measure the triglyceride level of the differentiated 3T3-L1 cells, the stained cells were dissolved in 1 mL of isobutanol and OD value was measured at 600 nm.

[2] = system: C57BL/6J mice; assay: Body weight, food efficiency and abdominal fat-pad weights in mice on high-fat diet; type: in vivo, mouse; conditions: 10 weeks
Procedure: The high-fat diet (HFD, 40% fat calorie, 17 g lard+3% corn oil/100 g diet) was used to induce obesity and piperine-containing diet had the same composition as the HFD except for containing 0.05% piperine. Normal diet (ND) was prepared according to AIN-76 rodent diet (see Table 1). [table] 5-week-old male C57BL/6J mice were accustomed to the laboratory environment for a week while feeding solid feed. […] Diet was provided between 10 and 11 a.m. every day along with water. Diet intake was measured every day, and body weight was measured every 3 days. In order to avoid transient body weight increase due to feed intake, body weight was measured 2 hours after removing the feedbox. […] In addition, food efficiency ratio (FER) was calculated by dividing accumulated body weight gain during test period into total diet uptake from the first day of test diet to sacrifice day. […] Further, regarding accumulation of abdominal fat, after fasting the test animal for at least 12 hours and anesthetizing with diethyl ether, blood, liver and abdominal fat tissues (epididymal, perirenal, mesenteric and retroperitoneal fat) were taken and weighed after washing with 0.1 M PBS (pH 7.4).

[3] = system: Swiss albino mice; conditions: piperine 100 mg/kg once a day for 4 weeks before benzo[α]pyrene 50 mg/kg twice a week for 16 weeks; cited from earlier work
[4] = 0.05% piperine in HFD, per unit body weight, FIG. 4

For `O=C(/C=C/C=C/c1ccc2c(c1)OCO2)N1CCCCC1` [piperine], the “concentration at which differentiation of preadipocytes 3T3-L1 was decreased in a concentration-dependent manner” value ([1]; piperine 0.1, 1, 10, 50 and 100 μM every other day, vs DMSO, FIG. 1A) was no less than 10 µM, the “amount of intracellular fat (OD value at 600 nm of fats stained with Oil Red O)” value ([1]; piperine 0.1-100 μM, stain dissolved in isobutanol, FIG. 1B) was “concentration-dependently reduced the amount of intracellular fat; also recorded: decrease in OD value in a concentration-dependent manner” and the “decrease in body weight gain (accumulated) compared to high-fat diet control group” value ([2]; 0.05% piperine in HFD, FIG. 2) was 68%. For the same compound, the “decrease in final body weight compared to high-fat diet control group” value ([2]; 0.05% piperine in HFD, FIG. 2) was 40%, the “daily food intake compared to high-fat diet control group” value ([2]; 0.05% piperine in HFD, FIG. 3) was “reduced; also recorded: significant decrease” and the “reduction of food efficiency ratio (FER) compared to high-fat diet control group” value ([2]; 0.05% piperine in HFD, body weight gain / total diet intake, FIG. 3) was 64%. For the same compound, the “reduction of epididymal fat-pad weight compared to high-fat diet control group” value [2, 4] was 63%, the “reduction of mesenteric fat-pad weight compared to high-fat diet control group” value [2, 4] was 68% and the “reduction of perirenal fat-pad weight compared to high-fat diet control group” value [2, 4] was 85%. The “reduction of retroperitoneal fat-pad weight compared to high-fat diet control group” value [2, 4] was 63%, the “reduction of total abdominal (visceral) fat-pad weights compared to high-fat diet control group” value [2, 4] was 66% and the “feed efficiency compared to control group (HFD), in words” value ([2]; piperine-supplemented diet) was “reduced”. The “antioxidant indicators (SOD, CAT, GPX, GSH, vitamin E, vitamin C) in the tissues” value [3] was “significantly high values”.
